{"source": "patent US10941399B2", "about": "“Methods and compositions for gene-specific demethylation by DNA methyltransferase (DNMT)-RNA interaction” (Beth Israel Deaconess Medical Center, Inc., priority 2011, dated 2021)", "target": "DNMT1 (Homo sapiens, UniProt P26358)", "sequence (P26358 whole entry)": "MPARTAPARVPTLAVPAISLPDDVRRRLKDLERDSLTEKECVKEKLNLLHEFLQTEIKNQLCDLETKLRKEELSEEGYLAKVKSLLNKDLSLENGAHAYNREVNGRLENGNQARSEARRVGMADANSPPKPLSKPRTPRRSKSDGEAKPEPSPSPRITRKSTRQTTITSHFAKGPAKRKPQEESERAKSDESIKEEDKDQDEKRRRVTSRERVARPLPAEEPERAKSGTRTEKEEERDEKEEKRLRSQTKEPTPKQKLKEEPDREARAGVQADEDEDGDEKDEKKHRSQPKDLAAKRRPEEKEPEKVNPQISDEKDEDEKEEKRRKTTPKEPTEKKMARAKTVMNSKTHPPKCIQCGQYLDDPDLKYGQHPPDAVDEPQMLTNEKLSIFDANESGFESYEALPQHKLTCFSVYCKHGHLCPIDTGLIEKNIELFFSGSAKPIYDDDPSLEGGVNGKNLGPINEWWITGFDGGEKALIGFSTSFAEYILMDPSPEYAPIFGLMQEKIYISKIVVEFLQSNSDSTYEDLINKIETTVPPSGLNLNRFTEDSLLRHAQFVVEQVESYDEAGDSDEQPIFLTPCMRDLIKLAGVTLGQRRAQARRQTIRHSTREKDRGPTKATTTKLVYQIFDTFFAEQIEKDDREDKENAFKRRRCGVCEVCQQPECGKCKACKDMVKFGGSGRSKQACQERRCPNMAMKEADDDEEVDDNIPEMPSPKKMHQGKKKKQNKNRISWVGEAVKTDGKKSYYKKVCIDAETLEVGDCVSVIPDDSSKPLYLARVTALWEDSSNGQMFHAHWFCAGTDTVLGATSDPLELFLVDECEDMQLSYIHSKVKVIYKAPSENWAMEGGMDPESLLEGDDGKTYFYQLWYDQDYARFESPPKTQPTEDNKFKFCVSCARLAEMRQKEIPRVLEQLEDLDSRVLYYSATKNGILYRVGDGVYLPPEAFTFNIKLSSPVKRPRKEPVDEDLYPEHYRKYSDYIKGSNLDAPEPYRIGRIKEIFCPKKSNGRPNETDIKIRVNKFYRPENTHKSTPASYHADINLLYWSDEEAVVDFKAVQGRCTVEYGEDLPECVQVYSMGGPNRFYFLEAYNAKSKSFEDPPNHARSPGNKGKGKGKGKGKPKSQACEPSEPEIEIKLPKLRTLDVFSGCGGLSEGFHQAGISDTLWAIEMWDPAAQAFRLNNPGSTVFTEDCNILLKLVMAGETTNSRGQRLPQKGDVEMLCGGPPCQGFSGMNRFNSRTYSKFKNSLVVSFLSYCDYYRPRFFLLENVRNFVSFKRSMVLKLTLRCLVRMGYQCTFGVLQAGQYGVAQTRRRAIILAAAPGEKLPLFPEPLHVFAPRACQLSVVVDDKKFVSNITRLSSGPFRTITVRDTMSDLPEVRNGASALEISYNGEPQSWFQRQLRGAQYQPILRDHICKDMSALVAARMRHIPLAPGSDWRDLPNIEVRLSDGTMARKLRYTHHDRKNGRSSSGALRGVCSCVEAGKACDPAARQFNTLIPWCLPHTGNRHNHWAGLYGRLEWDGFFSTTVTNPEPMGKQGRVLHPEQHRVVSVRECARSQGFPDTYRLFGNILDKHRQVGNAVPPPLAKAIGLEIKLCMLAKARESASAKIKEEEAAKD", "experiment": "Nuclear RNA immunoprecipitation (RIP) with anti-DNMT1 antibody", "assay_type": "binding", "parameters": "endogenous in cells; host or cells: HL-60 cells (nuclei); Similar results were obtained in U937 cells", "settings": "HL-60 cells", "method": "Nuclear RNA immunoprecipitation (nRIP): nRIP performed as described by Ebralidze et al. (Science 303:383-387, 2004) with some modifications. Crosslinked nuclei were collected as follows: About 60×10^6 HL-60 cells were crosslinked with 1% formaldehyde (formaldehyde solution, freshly made 50 mM HEPES-KOH; 100 mM NaCl; 1 mM EDTA; 0.5 mM EGTA; 11% formaldehyde) for 10 minutes at room temperature. Crosslinking was halted by adding 1/10th volume of 2.66 M Glycine, kept for 5 minutes at room temperature and 10 minutes on ice. Cell pellets were washed twice with ice-cold PBS (freshly supplemented with 1 mM PMSF) and then resuspended in cell lysis buffer (volume=4 mL, 1× Buffer of 10 mM Tris pH 7.4; 10 mM NaCl; 0.5% NP-40, freshly supplemented with protease inhibitors (protease inhibitors cocktail: Roche Applied Science, Cat. No. 1836153, 1 tablet with 375 μL H2O; add as ×100), 1 mM PMSF, and 2 mM vanadyl complex (NEB)). Cells were incubated at 0° C. for 10-15 minutes and homogenized by Dounce (10 strokes pestle A and 40 strokes pestle B). Nuclei were recovered by centrifugation at 2,000 rpm for 10 minutes at 4° C. Nuclei were resuspended in 3 ml 1× Resuspension Buffer (50 mM HEPES-NaOH, pH 7.4; 10 mM MgCl2) supplemented with 1 mM PMSF and 2 mM vanadyl complex. […]"}
{"substance": "ecRNA: endogenous ~5 kb non-polyadenylated nuclear extra-coding transcript of the C/EBPa locus (SEQ ID NO:8)", "values": [{"measurement": "enrichment in DNMT1-RNA precipitates compared to IgG control", "value": "> 60", "unit": "fold"}]}
